# Data reported in PubChem BioAssay (NCI).
#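 All cell lines were grown in 96-well plates and treated with compound for 48 hours. GI50 marks 50% less growth. TGI denotes the concentration required for complete inhibition of growth.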
# How the values were obtained:
# Assay in all cases: DTP human tumour cell line panel, 48 h
# [1] = test system: CCRF-CEM leukemia
# [2] = test system: NCI-H226 lung
# [3] = test system: HCT-15 colon
# [4] = test system: CAKI-1 renal
# [5] = test system: T-47D breast
# [6] = test system: KM12 colon
# [7] = test system: MDA-MB-435
# [8] = test system: HT29 colon
# [9] = test system: RXF 393 renal
# [10] = test system: K-562 leukemia
# [11] = test system: RPMI-8226 leukemia
# [12] = test system: SK-OV-3 ovarian
# [13] = test system: MDA-N
# [14] = test system: 786-0 renal
# [15] = test system: SR leukemia
# [16] = test system: ACHN renal
# [17] = test system: NCI-H23 lung
# [18] = test system: MOLT-4 leukemia
# [19] = test system: UACC-62 melanoma
# [20] = test system: IGROV1 ovarian
# [21] = test system: SN12C renal
# [22] = test system: SNB-75 CNS
# [23] = test system: HL-60(TB) leukemia
# [24] = test system: U251 CNS
# [25] = test system: HOP-92 NSCLC
# [26] = test system: LOX IMVI melanoma
# [27] = test system: HS 578T breast
# [28] = test system: SW-620 colon
# [29] = test system: EKVX NSCLC
# [30] = test system: UO-31 renal
# [31] = test system: TK-10 renal
# [32] = test system: SK-MEL-2 melanoma
# [33] = test system: OVCAR-5 ovarian
# [34] = test system: OVCAR-8 ovarian
# [35] = test system: HCC-2998 colon
# [36] = test system: NCI/ADR-RES ovarian
# [37] = test system: HOP-62 NSCLC
# [38] = test system: COLO 205 colon
# [39] = test system: SNB-19 CNS
# [40] = test system: MDA-MB-231 breast
# [41] = test system: SF-295 CNS
# [42] = test system: NCI-H522 lung
# [43] = test system: SF-539 CNS
# [44] = test system: A549 NSCLC
# [45] = test system: PC-3 prostate
# [46] = test system: DU-145 prostate
# [47] = test system: BT-549 breast
# [48] = test system: MALME-3M melanoma
# [49] = test system: SK-MEL-5 melanoma
# [50] = test system: HCT-116 colon
# [51] = test system: M14 melanoma
# [52] = test system: A498 renal
# [53] = test system: OVCAR-3 ovarian
# [54] = test system: SF-268 CNS
# [55] = test system: OVCAR-4 ovarian
# [56] = test system: UACC-257 melanoma
# [57] = test system: MCF7 breast
# [58] = test system: SK-MEL-28 melanoma
# [59] = test system: NCI-H460 lung
# [60] = test system: LXFL 529 NSCLC
# [61] = test system: XF 498 CNS
# [62] = test system: DLD-1 colon
# [63] = test system: DMS 114 small cell lung
# [64] = test system: DMS 273 small cell lung
# [65] = test system: M19-MEL melanoma
smiles,measurement,setting,value
CCc1cn(C2CC(CO)C(CO)S2)c(=O)[nH]c1=O (stereo not drawn),TGI,[1],> 100 µM
same,TGI,[2],> 100 µM
same,TGI,[3],> 100 µM
same,TGI,[4],> 100 µM
same,TGI,[5],> 100 µM
same,TGI,[6],> 100 µM
same,TGI,[7],> 100 µM
same,TGI,[8],> 100 µM
same,TGI,[9],> 100 µM
same,TGI,[10],> 100 µM
same,TGI,[11],> 100 µM
same,TGI,[12],> 100 µM
same,TGI,[13],> 100 µM
same,TGI,[14],> 100 µM
same,GI50,[15],> 100 µM
same,TGI,[15],> 100 µM
same,TGI,[16],> 100 µM
same,TGI,[17],> 100 µM
same,TGI,[18],> 100 µM
same,TGI,[19],> 100 µM
same,TGI,[20],> 100 µM
same,TGI,[21],> 100 µM
same,TGI,[22],> 100 µM
same,TGI,[23],> 100 µM
same,TGI,[24],> 100 µM
same,TGI,[25],> 100 µM
same,TGI,[26],> 100 µM
same,TGI,[27],> 100 µM
same,TGI,[28],> 100 µM
same,TGI,[29],> 100 µM
same,TGI,[30],> 100 µM
same,TGI,[31],> 100 µM
same,TGI,[32],> 100 µM
same,TGI,[33],> 100 µM
same,TGI,[34],> 100 µM
same,TGI,[35],> 100 µM
same,TGI,[36],> 100 µM
same,TGI,[37],> 100 µM
same,TGI,[38],> 100 µM
same,TGI,[39],> 100 µM
same,TGI,[40],> 100 µM
same,TGI,[41],> 100 µM
same,TGI,[42],> 100 µM
same,TGI,[43],> 100 µM
same,TGI,[44],> 100 µM
same,TGI,[45],> 100 µM
same,TGI,[46],> 100 µM
same,TGI,[47],> 100 µM
same,TGI,[48],> 100 µM
same,TGI,[49],> 100 µM
same,TGI,[50],> 100 µM
same,TGI,[51],> 100 µM
same,TGI,[52],> 100 µM
same,TGI,[53],> 100 µM
same,TGI,[54],> 100 µM
same,TGI,[55],> 100 µM
same,TGI,[56],> 100 µM
same,TGI,[57],> 100 µM
same,TGI,[58],> 100 µM
COc1cc(C)cc2c1C(=O)C(NC(C)=O)=CC2=O,TGI,[1],> 100 µM
same,TGI,[2],> 100 µM
same,TGI,[3],> 100 µM
same,TGI,[4],> 100 µM
same,TGI,[5],> 100 µM
same,TGI,[6],> 100 µM
same,TGI,[7],31.3 µM
same,TGI,[8],> 100 µM
same,TGI,[9],> 100 µM
same,TGI,[10],> 100 µM
same,TGI,[11],> 100 µM
same,TGI,[12],> 100 µM
same,TGI,[13],32.8 µM
same,TGI,[14],> 100 µM
same,TGI,[15],> 100 µM
same,TGI,[16],> 100 µM
same,TGI,[17],> 100 µM
same,TGI,[18],88.7 µM
same,TGI,[19],> 100 µM
same,TGI,[20],> 100 µM
same,TGI,[21],> 100 µM
same,TGI,[22],> 100 µM
same,TGI,[23],53.2 µM
same,TGI,[24],> 100 µM
same,TGI,[25],> 100 µM
same,TGI,[27],> 100 µM
same,TGI,[28],> 100 µM
same,TGI,[29],> 100 µM
same,TGI,[59],> 100 µM
same,TGI,[30],> 100 µM
same,TGI,[31],> 100 µM
same,TGI,[32],> 100 µM
same,TGI,[33],> 100 µM
same,TGI,[34],> 100 µM
same,TGI,[35],> 100 µM
same,TGI,[36],> 100 µM
same,TGI,[37],> 100 µM
same,TGI,[38],> 100 µM
same,TGI,[39],> 100 µM
same,TGI,[40],> 100 µM
same,TGI,[41],> 100 µM
same,TGI,[42],> 100 µM
same,TGI,[43],> 100 µM
same,TGI,[44],> 100 µM
same,TGI,[45],> 100 µM
same,TGI,[46],> 100 µM
same,TGI,[47],> 100 µM
same,TGI,[48],> 100 µM
same,TGI,[49],> 100 µM
same,TGI,[50],> 100 µM
same,TGI,[51],> 100 µM
same,TGI,[52],> 100 µM
same,TGI,[53],> 100 µM
same,TGI,[54],> 100 µM
same,TGI,[55],74.5 µM
same,TGI,[56],> 100 µM
same,TGI,[57],> 100 µM
same,TGI,[58],> 100 µM
C=Cc1c(-c2ccccc2)cnc2[nH]c3ccccc3c12,TGI,[1],> 50 µM
same,TGI,[3],> 50 µM
same,TGI,[4],> 50 µM
same,TGI,[6],> 50 µM
same,TGI,[8],> 50 µM
same,TGI,[9],> 50 µM
same,TGI,[10],> 50 µM
same,TGI,[11],> 50 µM
same,TGI,[12],> 50 µM
same,TGI,[14],> 50 µM
same,TGI,[15],> 50 µM
same,TGI,[16],> 50 µM
same,TGI,[17],> 50 µM
same,TGI,[18],> 50 µM
same,TGI,[19],> 50 µM
same,TGI,[20],> 50 µM
same,TGI,[21],> 50 µM
same,TGI,[22],46 µM
same,TGI,[60],> 50 µM
same,TGI,[23],> 50 µM
same,TGI,[24],> 50 µM
same,TGI,[61],> 50 µM
same,TGI,[26],> 50 µM
same,TGI,[28],> 50 µM
same,TGI,[29],> 50 µM
same,TGI,[62],> 50 µM
same,TGI,[63],> 50 µM
same,TGI,[59],> 50 µM
same,TGI,[30],> 50 µM
same,TGI,[31],> 50 µM
same,TGI,[32],> 50 µM
same,TGI,[64],> 50 µM
same,TGI,[33],> 50 µM
same,TGI,[34],> 50 µM
same,TGI,[35],> 50 µM
same,TGI,[37],> 50 µM
same,TGI,[38],> 50 µM
same,TGI,[39],> 50 µM
same,TGI,[41],> 50 µM
same,TGI,[42],> 50 µM
same,TGI,[44],> 50 µM
same,TGI,[65],> 50 µM
same,TGI,[48],> 50 µM
same,TGI,[49],> 50 µM
same,TGI,[50],> 50 µM
same,TGI,[51],> 50 µM
same,TGI,[52],> 50 µM
same,TGI,[53],> 50 µM
same,TGI,[54],> 50 µM
same,TGI,[55],> 50 µM
same,TGI,[56],> 50 µM
same,TGI,[58],> 50 µM
Cc1cc(NS(=O)(=O)c2ccc(NC(=O)c3ccc4nc5ccccc5c(Nc5ccc(S(N)(=O)=O)cc5)c4c3)cc2)no1,TGI,[1],78.3 µM
same,TGI,[2],> 100 µM
same,TGI,[3],41.3 µM
same,TGI,[4],> 100 µM
same,TGI,[5],71.3 µM
same,TGI,[6],59.1 µM
same,TGI,[7],45.3 µM
same,TGI,[8],72.2 µM
same,TGI,[9],58.4 µM
same,TGI,[10],44.6 µM
same,TGI,[11],68 µM
same,TGI,[12],> 100 µM
same,TGI,[13],66 µM
same,TGI,[14],30.8 µM
same,TGI,[15],73.4 µM
same,TGI,[16],45.6 µM
same,TGI,[17],95.2 µM
same,TGI,[18],61.8 µM
same,TGI,[19],67.7 µM
same,TGI,[20],> 100 µM
same,TGI,[21],81.5 µM
same,TGI,[22],94.7 µM
same,TGI,[23],56.2 µM
same,TGI,[24],64.7 µM
same,TGI,[25],78.3 µM
same,TGI,[26],26.5 µM
same,TGI,[27],86.8 µM
same,TGI,[28],72.3 µM
same,TGI,[29],63 µM
same,TGI,[59],53.1 µM
same,TGI,[30],43.4 µM
same,TGI,[31],82.9 µM
same,TGI,[32],73.3 µM
same,TGI,[33],65.8 µM
same,TGI,[34],66 µM
same,TGI,[35],> 100 µM
same,TGI,[36],> 100 µM
same,TGI,[37],> 100 µM
same,TGI,[38],43.8 µM
same,TGI,[39],> 100 µM
same,TGI,[40],67.1 µM
same,TGI,[41],> 100 µM
same,TGI,[42],37.7 µM
same,TGI,[43],80.9 µM
same,TGI,[44],66.3 µM
same,TGI,[45],> 100 µM
same,TGI,[46],> 100 µM
same,TGI,[47],67.5 µM
same,TGI,[48],61.8 µM
same,TGI,[49],41 µM
same,TGI,[50],63.2 µM
same,TGI,[51],> 100 µM
same,TGI,[52],> 100 µM
same,TGI,[53],74.4 µM
same,TGI,[54],> 100 µM
same,TGI,[55],89.9 µM
same,TGI,[56],57.8 µM
same,TGI,[57],37.1 µM
same,TGI,[58],50.7 µM
